Assays:
[1] = stability of polymorphs with temperature (thermal analyses); assay type: physicochemical; details: for relative stability among the polymorphs: at ambient temperatures, monohydrate
Protocol: Thermogravimetric (TG) analyses were carried out on a TA Instruments 2050 or 2950 thermogravimetric analyzer. The calibration standards were nickel and Alumel™. Samples were placed in an aluminum sample pan, inserted into the TG furnace, and accurately weighed. The samples were heated in nitrogen at a rate of 10°C/min to either 300 or 350° C. Unless stated otherwise, samples weights were equilibrated at 25°C in the TGA furnace prior to analysis.
Differential scanning calorimetry (DSC) analyses were carried out on a TA Instruments differential scanning calorimeter 2920. Accurately weighed samples were placed in either crimped pans or hermetically sealed pans that contained a pinhole to allow for pressure release. Each sample was heated under nitrogen at a rate of 10°C/min to either 300 or 350°C. Indium metal was used as the calibration standard. Temperatures were reported at the transition maxima.

[2] = stability of polymorphs under relative humidity stress / atmospheric moisture; assay type: physicochemical; details: for stability under relative humidity stress conditions: up to melting point, monohydrate
Protocol: Moisture sorption/desorption data were collected on a VTI SGA-100 Vapor Sorption Analyzer. Sorption and desorption data were collected over a range of 5% to 95% relative humidity […] at 10% RH intervals under a nitrogen purge. Sodium chloride (NaCl) and polyvinylpyrrolidone (PVP) were used as the calibration standards. Equilibrium criteria used for analysis were less than 0.0100% weight change in 5 minutes, with a maximum equilibration time of 180 minutes if the weight criterion was not met. The plotted data have not been corrected for the initial moisture content.

A2A-adenosine receptor = A2A-adenosine receptor (Homo sapiens, UniProt P29274); details: disclosed in U.S. Patent No. 6,403,567; cited from earlier work
[3] = in humans; cited from earlier work

Chain of A2A-adenosine receptor (P29274 whole entry): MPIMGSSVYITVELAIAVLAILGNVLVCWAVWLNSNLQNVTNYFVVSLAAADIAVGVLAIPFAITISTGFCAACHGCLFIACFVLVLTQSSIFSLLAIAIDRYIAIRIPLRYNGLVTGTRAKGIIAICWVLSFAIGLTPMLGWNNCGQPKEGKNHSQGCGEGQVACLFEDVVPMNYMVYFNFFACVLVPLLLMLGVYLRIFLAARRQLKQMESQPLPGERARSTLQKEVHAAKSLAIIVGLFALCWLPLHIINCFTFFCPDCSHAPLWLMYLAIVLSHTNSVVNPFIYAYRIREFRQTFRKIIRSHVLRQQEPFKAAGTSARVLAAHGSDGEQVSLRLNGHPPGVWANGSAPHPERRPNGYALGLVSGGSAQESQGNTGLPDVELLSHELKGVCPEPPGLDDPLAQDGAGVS

SMILES: CNC(=O)c1cnn(-c2nc(N)c3ncn([C@@H]4O[C@H](CO)[C@@H](O)[C@H]4O)c3n2)c1.O [Form A, (1-{9-[(4S,2R,3R,5R)-3,4-dihydroxy-5-(hydroxymethyl)oxolan-2-yl]-6-aminopurin-2-yl}pyrazol-4-yl)-N-methylcarboxamide monohydrate]
- relative stability among the polymorphs ([1]; listed as monohydrate): most stable
- relative stability among the polymorphs [1]: most stable of the various polymorphs at ambient temperatures
- stability under relative humidity stress conditions ([2]; listed as monohydrate): stable under relative humidity stress conditions, up to its melting point
- stability under relative humidity stress conditions [2]: stable under relative humidity stress conditions up to its melting point

SMILES: CNC(=O)c1cnn(-c2nc(N)c3ncn([C@@H]4O[C@H](CO)[C@@H](O)[C@H]4O)c3n2)c1 [(1-{9-[(4S,2R,3R,5R)-3,4-dihydroxy-5-(hydroxymethyl)oxolan-2-yl]-6-aminopurin-2-yl}pyrazol-4-yl)-N-methylcarboxamide]
- selectivity as A2A-adenosine receptor agonist (A2A-adenosine receptor): highly selective

SMILES: CNC(=O)c1cnn(-c2nc(N)c3ncn([C@@H]4O[C@H](CO)[C@@H](O)[C@H]4O)c3n2)c1 [Form C, (1-{9-[(4S,2R,3R,5R)-3,4-dihydroxy-5-(hydroxymethyl)oxolan-2-yl]-6-aminopurin-2-yl}pyrazol-4-yl)-N-methylcarboxamide]
- stability at elevated temperatures ([1]; elevated temperatures): desolvates to an unstable form

SMILES: Nc1ncnc2c1ncn2[C@@H]1O[C@H](CO)[C@@H](O)[C@H]1O [Adenosine]
- half life [3]: less than 10 seconds

SMILES: CNC(=O)c1cnn(-c2nc(N)c3ncn([C@@H]4O[C@H](CO)[C@@H](O)[C@H]4O)c3n2)c1 [Amorphous Material, (1-{9-[(4S,2R,3R,5R)-3,4-dihydroxy-5-(hydroxymethyl)oxolan-2-yl]-6-aminopurin-2-yl}pyrazol-4-yl)-N-methylcarboxamide]
- stability in the presence of atmospheric moisture ([2]; atmospheric moisture): unstable in the presence of atmospheric moisture

Source: EP2158208B1, “PROCESS FOR PREPARING AN A2A-ADENOSINE RECEPTOR AGONIST AND ITS POLYMORPHS” (Gilead Sciences, Inc., priority 2007, dated 2008)
